Experimental data published in patent US20170058319A1, “NANOSENSOR FOR ASSESSING THROMBIN INHIBITORS” (VIRGINIA COMMONWEALTH UNIVERSITY, priority 2014, published 2017).
“Also recorded” adds a separate entry of the source.

Legend:
[1] = cited from earlier work
AT levels = settings: in vivo; cited from earlier work
[2] = Experimental: Stability of Au-TH nanoparticles was studied at RT and at −80° C. The NPs were kept in dark at RT for six hours and at −80° C. for 1 month. Absorbance spectra were measured every hour.
[3] = Catalytic activity of surface bound thrombin, Michaelis Menten kinetics; type: biochemical; settings: PBS pH 7.4, 37° C., Spectrozyme TH 0.7-750 μM
Experimental: Michaelis Menten kinetics were utilized to test the catalytic activity of the surface bound thrombin on the AuNP-TH using a microplate chromogenic substrate hydrolysis assay. Briefly, 165 μL aliquots of PBS buffer pH 7.4 were placed in a 96-well microplate, to which either 5 μL of thrombin at a concentration of 0.04 mg/ml (1 μM) or 5 μL of AuNP-TH was added. The solution was incubated for 5 minutes at 37° C., followed by addition of 30 μL of serial dilutions of Spectrozyme TH substrate such that the final concentrations ranged from 0.7-750 μM. The velocity of substrate hydrolysis was measured by monitoring the slope of the increase in absorbance at 405 nm. A plot of velocity of substrate hydrolysis (v) vs substrate concentration ([S]) (FIG. 5) was fit to the Michaelis Menten equation below to yield the Michaelis Menten constant (KM) and maximum velocity of the reaction (VMAX), which are a direct measure of the catalytic efficiency of the enzyme.

[4] = target: T1, NSET pair (Au-TH-NS and HirP) (Bos taurus, UniProt P00735); experiment: Probing antithrombin levels in plasma with NSET pair; type: binding, bovine; settings: 600 μM BSA, 5-20 μL
T1 construct: An aliquot of bovine α-thrombin (200 μg) from a stock solution; purchased Haematologic Technologies, Vermont, USA BCT-1020
Experimental: A 96-well plate was used for this experiment. The baseline fluorescence of the NSET pair (Au-TH-NS (6 nM, 50 μL) and HirP (50 μL, 30 nM) in 50 μL of 20 mM Tris-HCl buffer, pH 7.4, containing 100 mM NaCl, 2.5 mM CaCl2 and 0.1% PEG8000) was measured by recording the fluorescence emission at 525 nm (λex=488 nm). The NSET pair was then incubated with different volumes of plasma (5 μL, 10 μL, 15 μL and 20 μL). To assess specificity of AT reaction, the NSET pair was also incubated with 600 μM BSA (5 μL, […], 15 μL and 20 μL). The fluorescence intensity was recorded within 1-3 min after incubation began (FIG. 6).

[5] = in vivo; cited from earlier work
[6] = target: T2, Au-TH-HirP nanoprobe (NSET pair) (Bos taurus, UniProt P00735); experiment: Probing antithrombin levels in buffer with Au-TH-HirP nanoprobe (NSET pair); type: binding, bovine; settings: for increase in fluorescence at 525 nm: 1 hr incubation
T2 construct: An aliquot of bovine α-thrombin (200 μg) from a stock solution; purchased Haematologic Technologies, Vermont, USA BCT-1020
Experimental: Au-TH-NP (6 nM, 50 μL) and HirP (50 μL, 30 nM) were mixed with 20 mM Tris-HCl buffer, pH 7.4, containing 100 mM NaCl, 2.5 mM CaCl2 and 0.1% PEG8000 and used as the standard nano-metal surface energy transfer (NSET) pair. Antithrombin (AT) was serially diluted starting from 100 μM to 1 pM by adding 20 mM Tris-HCl buffer, pH 7.4. Serially diluted AT solutions were then incubated with standard NSET pair in a 96-well plate for 0-1 h at RT with gentle rocking. A solution of 100 μL of Au-TH-HirP nanoprobe (NSET pair) mixed with 50 μL of buffer was used a control (F0). After 1 h of incubation, the 96-well plate was read at 525 nm (λex=488 nm) (F). A plot of F/F0 as Y-axis against AT concentration as X-axis is shown as FIG. 5. […] The fluorescence increases were smaller at 15, 30 and 45 min timepoints (FIG. 5).

[7] = target: T3, surface bound thrombin on the AuNP (Bos taurus, UniProt P00735); experiment: Reactivity of surface bound thrombin to antithrombin, chromogenic substrate hydrolysis assay; type: biochemical, bovine; settings: AT alone
T3 construct: An aliquot of bovine α-thrombin (200 μg) from a stock solution; purchased Haematologic Technologies, Vermont, USA BCT-1020
Experimental: To test if the surface bound thrombin on the AuNP is reactive towards antithrombin, chromogenic substrate hydrolysis assay like the one mentioned above was performed in the presence of antithrombin and heparin. In a 96-well microplate, 80 μL of PBS buffer was mixed with 5 μL of either AuNP or water. Following this, 5 μL of AT (100 μM) and 5 μL of heparin (3.6 mM) was added and the mixtures were incubated at 25° C. for 20 minutes. Controls were kept with and without AT and heparin, respectively. After incubation, 5 μL of 5 mM Spectrozyme TH was added and the rate of substrate hydrolysis was monitored by observing the absorbance at 405 nm. The velocity of the substrate hydrolysis as obtained by the slope was compared to that of the controls in order to assess the reactivity of the thrombin towards AT (FIG. 6). An approximate 70% reactivity towards AT in the presence of heparin is observed for the AuNP-TH sample.

Au-TH nanoprobe = target: T4, Au-TH nanoprobe (Bos taurus, UniProt P00735); experiment: Quenching of [5F]-hirudin (54-65) SO3- fluorescence by Au-TH nanoprobe; type: binding, bovine; settings: 30 nM HirP, 0.5 h at RT, 525 nm (λex=488 nm)
T4 construct: An aliquot of bovine α-thrombin (200 μg) from a stock solution; purchased Haematologic Technologies, Vermont, USA BCT-1020

PF-4 heparin complex = target: T5, PF-4 heparin complex (Homo sapiens, UniProt P02776); settings: in vivo; cited from earlier work
T5 sequence (P02776 32-101): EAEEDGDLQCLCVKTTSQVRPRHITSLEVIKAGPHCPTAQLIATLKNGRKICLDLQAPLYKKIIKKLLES

## CCCCCCOC(=O)NC(=N)c1ccc(NCc2nc3cc(C(=O)N(CCC(=O)OCC)c4ccccn4)ccc3n2C)cc1 [Dabigatran etexilate]
[1]; doses as high as 300 mg twice a day for 12 weeks
  liver function tests: no abnormal liver function tests
[1]; trial with and without aspirin
  patients who developed significant bleeding: approximately 11%

## heparin
AT levels
  incidence of acquired AT deficiency: ≤ 25%

## Au-TH nanoparticles: gold nanoparticles covalently linked to bovine alpha-thrombin
[2]; RT, in dark, six hours
  stability, change in absorbance spectra: essentially no change
[2]; −80° C., 1 month
  stability, degradation on storage: did not exhibit any degradation
[3]; listed as Au-TH NP
  VMAX and KM / catalytic efficiency compared with free thrombin: identical to that of free thrombin
[3]; listed as AuNP-TH
  VMAX and KM / catalytic efficiency compared with free thrombin: remain almost the same as that of free thrombin

## bovine serum albumin [BSA]
[4]
  change in emission intensity: significant decrease; also recorded: Corresponding increases were not observed

## bivalirudin
[5]
  half-life: 25 min

## antithrombin [AT]
[6]; 15, 30 and 45 min timepoints versus 1 hr
  fluorescence increases at earlier timepoints: smaller
[6]; AT 1 μM
  increase in fluorescence at 525 nm: approximately 40%
[6]; AT 10 μM
  increase in fluorescence at 525 nm: ~25
[6]; AT 100 μM
  increase in fluorescence at 525 nm: ~20%
[6]; AT concentrations less than 1 μM
  increase in fluorescence: Noticeable increases
[7]
  neutralization of surface bound thrombin by AT: up to 60%

## [5F]-hirudin (54-65) SO3^− [HirP]
Au-TH nanoprobe
  quenching of fluorescence from HirP: approximately 86%

## unfractionated heparin [UFH]
PF-4 heparin complex
  patients forming antibodies to PF-4 heparin: 30-40%
